For this assay, the target named is USP30 (Homo sapiens (Human), UniProt Q70CQ3). Nature of the assay: USP30 Biochemical IC50 Assay. Particulars: fluorescence polarisation, TAMRA labelled peptide linked to ubiquitin; 30 min pre-incubation, read after 2 h; read-out: IC50 range. The method in brief:
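Enzyme preincubated 30 min at room temperature with compound, then 50 nM TAMRA-labelled isopeptide-linked ubiquitin–peptide substrate added. Fluorescence polarisation (ex 540/em 590 nm) read at once and after 2 h at room temperature; duplicate reactions.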
Background: Polarisation of emitted light reports the rotation of a fluorescent probe.

Molecules are shown by their SMILES. Bounds are passed on as bounds.

One may read the IC50 as the midpoint of a concentration-inhibition curve.

USP30, sequence (Q70CQ3 57-517): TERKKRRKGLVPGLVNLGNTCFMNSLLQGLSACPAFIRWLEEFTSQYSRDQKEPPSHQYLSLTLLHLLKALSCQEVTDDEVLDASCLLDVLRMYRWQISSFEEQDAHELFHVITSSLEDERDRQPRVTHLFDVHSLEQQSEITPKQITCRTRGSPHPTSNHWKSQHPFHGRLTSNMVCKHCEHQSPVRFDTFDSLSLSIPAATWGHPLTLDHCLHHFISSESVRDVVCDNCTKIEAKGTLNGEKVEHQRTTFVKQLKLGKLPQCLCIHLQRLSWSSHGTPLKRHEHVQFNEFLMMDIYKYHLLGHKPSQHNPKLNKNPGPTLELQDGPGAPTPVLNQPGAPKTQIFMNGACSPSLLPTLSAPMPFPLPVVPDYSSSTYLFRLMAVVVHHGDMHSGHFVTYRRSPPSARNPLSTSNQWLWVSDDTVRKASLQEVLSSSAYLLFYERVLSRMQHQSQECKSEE

Consider `C[C@@H]1CN(C#N)C[C@H]1c1cc(-c2cccc(-c3ccccc3)c2)n[nH]1` (relative stereo) [Example 19, Trans-3-(3-([1,1′-biphenyl]-3-yl)-1H-pyrazol-5-yl)-4-methylpyrrolidine-1-carbonitrile], for which the IC50 is 100 to 1000 nM.

As for `Cn1cc(-c2cccc(-c3nc(C4CCCN4C#N)no3)c2)cn1` (centres unmarked) [Example 148, 2-(5-(3-(1-Methyl-1H-pyrazol-4-yl)phenyl)-1,2,4-oxadiazol-3-yl)pyrrolidine-1-carbonitrile], the IC50 was 1000 to 10000 nM.

For `N#Cc1cccc(-c2ccnc(-c3nc(C4CCCN4C#N)no3)c2)c1` (centres unmarked) [Example 172, 2-(5-(4-(3-Cyanophenyl)pyridin-2-yl)-1,2,4-oxadiazol-3-yl)pyrrolidine-1-carbonitrile], the IC50 lay within 100 to 1000 nM.

For the compound `Cn1c(C2CCN(C#N)C2)nc2cc(-c3ccccc3)cnc21` (centres unmarked) [Example 101, 3-(3-Methyl-6-phenyl-3H-imidazo[4,5-b]pyridin-2-yl)pyrrolidine-1-carbonitrile], the half-maximal inhibitory concentration (IC50) fell in the range of 100 to 1000 nM.

With `N#CN1CCC(c2[nH]nc(-c3cccc(-c4ccccc4)c3)c2F)C1` (centres unmarked) [Example 15, 3-(3-([1,1′-Biphenyl]-3-yl)-4-fluoro-1H-pyrazol-5-yl)pyrrolidine-1-carbonitrile], the IC50 is less than 100 nM.

Take `N#Cc1cnn(-c2cncc(-c3nc([C@@H]4CCCN4C#N)no3)n2)c1` [Example 202, (S)-1-(6-(3-(1-Cyanopyrrolidin-2-yl)-1,2,4-oxadiazol-5-yl)pyrazin-2-yl)-1H-pyrazole-4-carbonitrile]: the IC50 is 100 to 1000 nM.

Consider `N#CN1CCC(c2cccc(-c3ccccc3)c2N)C1` (centres unmarked) [Example 123, 3-(2-Amino-[1,1′-biphenyl]-3-yl)pyrrolidine-1-carbonitrile], for which the IC50 lay within 100 to 1000 nM.

As to `N#CN1CCC(c2nnc(-c3ccc(-c4ccccc4)cc3)[nH]2)C1` (centres unmarked) [Example 112, 3-(3-([1,1′-Biphenyl]-4-yl)-1H-1,2,4-triazol-5-yl)pyrrolidine-1-carbonitrile], the IC50 lay within 100 to 1000 nM.

With `CC(=O)Nc1cccc(-c2cc(C3CCN(C#N)C3)[nH]n2)c1` (centres unmarked) [Example 7, N-(3-(5-(1-Cyanopyrrolidin-3-yl)-1H-pyrazol-3-yl)phenyl)acetamide], the IC50 was in the range of 1000 to 10000 nM.

With `N#CN1CCCC1c1noc(-c2ccc(-c3ccccc3)cc2)n1` (centres unmarked) [Example 67, 2-(5-([1,1′-Biphenyl]-4-yl)-1,2,4-oxadiazol-3-yl)pyrrolidine-1-carbonitrile], the IC50 was 1000 to 10000 nM.

With `N#CN1CCC(c2n[nH]c(-c3ccnc(-c4ccccc4)c3)n2)C1` (centres unmarked) [Example 199, 3-(3-(2-Phenylpyridin-4-yl)-1H-1,2,4-triazol-5-yl)pyrrolidine-1-carbonitrile], the 50% inhibitory concentration (IC50) lay within 100 to 1000 nM.

In the case of `N#CN1CCCC1c1noc(-c2ccnc(-c3cccc(C(N)=O)c3)c2)n1` (centres unmarked) [Example 170, 3-(4-(3-(1-Cyanopyrrolidin-2-yl)-1,2,4-oxadiazol-5-yl)pyridin-2-yl)benzamide], the IC50 lay in the range of 1000 to 10000 nM.

`N#Cc1ccc(-c2nccc(-c3nc([C@@H]4CCCN4C#N)no3)n2)cn1` [Example 201, (S)-5-(4-(3-(1-Cyanopyrrolidin-2-yl)-1,2,4-oxadiazol-5-yl)pyrimidin-2-yl)picolinonitrile]: the IC50 lay in the range of 100 to 1000 nM.

Regarding `N#CN1CCC(c2cc(-c3cccc(-c4cnoc4)c3)[nH]n2)C1` (centres unmarked) [Example 33, 3-(5-(3-(Isoxazol-4-yl)phenyl)-1H-pyrazol-3-yl)pyrrolidine-1-carbonitrile], the IC50 was in the range of 100 to 1000 nM.

Take `N#CN1CCC(c2nnc(-c3ccc4nc[nH]c4c3)[nH]2)C1` (centres unmarked) [Example 107, 3-(5-(1H-Benzo[d]imidazol-6-yl)-4H-1,2,4-triazol-3-yl)pyrrolidine-1-carbonitrile]: the IC50 lay in the range of 1000 to 10000 nM.

Regarding `CCc1cccc(-c2ccc3oc([C@@H]4CCCN4C#N)nc3c2)c1` [Example 129, (S)-2-(5-(3-Ethylphenyl)benzo[d]oxazol-2-yl)pyrrolidine-1-carbonitrile], the IC50 lay in the range of 100 to 1000 nM.

Take `Cn1ncc2cc(-c3ccc4oc([C@@H]5CCCN5C#N)nc4c3)ccc21` [Example 135, (S)-2-(5-(1-Methyl-1H-indazol-5-yl)-benzo[d]oxazol-2-yl)pyrrolidine-1-carbonitrile]: the IC50 lay within 1000 to 10000 nM.

Take `N#CN1CCC[C@H]1c1nc2ccc(-c3ccccc3)cc2[nH]1` [Example 94, (S)-2-(6-Phenyl-1H-benzo[d]imidazol-2-yl)pyrrolidine-1-carbonitrile]: the IC50 fell in the range of 1000 to 10000 nM.

As to `N#CN1CCCC1c1nnc(-c2cccc(-c3ccccc3)c2)o1` (centres unmarked) [Example 140, 2-(5-([1,1′-Biphenyl]-3-yl)-1,3,4-oxadiazol-2-yl)pyrrolidine-1-carbonitrile], the IC50 was in the range of 1000 to 10000 nM.

Take `N#CN1CCCC1c1noc(-c2cccc(-c3ccccc3)c2)n1` (centres unmarked) [Example 68, 2-(5-([1,1′-Biphenyl]-3-yl)-1,2,4-oxadiazol-3-yl)pyrrolidine-1-carbonitrile]: the IC50 was in the range of 100 to 1000 nM.

Take `N#CN1CCC(c2noc(-c3cccc(-c4ccccc4)c3)n2)C1` (centres unmarked) [Example 55]: the IC50 was less than 100 nM.

Consider `N#Cc1ccc(-c2cccc(-c3nc([C@@H]4CCCN4C#N)no3)n2)cc1` [Example 175, (S)-2-(5-(6-(4-Cyanophenyl)pyridin-2-yl)-1,2,4-oxadiazol-3-yl)pyrrolidine-1-carbonitrile], for which the IC50 is less than 100 nM.

`CN(C)S(=O)(=O)c1cccc(-c2cccc(-c3nc(C4CCCN4C#N)no3)c2)c1` (centres unmarked) [Example 150, 3′-(3-(1-Cyanopyrrolidin-2-yl)-1,2,4-oxadiazol-5-yl)-N,N-dimethyl-[1,1′-biphenyl]-3-sulfonamide]: the IC50 lay in the range of 1000 to 10000 nM.

In the case of `N#CN1CCC(c2cc(-c3cccc(-c4ccccc4)n3)[nH]n2)C1` (single isomer, unassigned) [Example 42, 3-(5-(6-Phenylpyridin-2-yl)-1H-pyrazol-3-yl)pyrrolidine-1-carbonitrile], the IC50 is 100 to 1000 nM.

In the case of `N#CN1CCC(c2nc3cc(-c4ccncc4)cnc3[nH]2)C1` (single isomer, unassigned) [Example 82, 3-(6-(Pyridin-4-yl)-3H-imidazo[4,5-b]pyridin-2-yl)pyrrolidine-1-carbonitrile], the IC50 lay within 1000 to 10000 nM.

For `C[C@@H]1CN(C#N)C[C@H]1c1cc(-c2cccc(-c3ccccc3)c2)nn1C` [Example 24], the IC50 lay within 100 to 1000 nM.

Consider `Cc1c(-c2ccccc2)cnc2nc(C3CCN(C#N)C3)[nH]c12` (centres unmarked) [Example 100, 3-(7-Methyl-6-phenyl-3H-imidazo[4,5-b]pyridin-2-yl)pyrrolidine-1-carbonitrile], for which the IC50 was 100 to 1000 nM.

On to `C[C@H]1CN(C#N)C[C@@H]1c1nc2cc(-c3ccccc3)cnc2[nH]1` (single isomer, unassigned) [Example 102, Trans-3-methyl-4-(6-phenyl-3H-imidazo[4,5-b]pyridin-2-yl)pyrrolidine-1-carbonitrile], for which the IC50 is 100 to 1000 nM.

Consider `N#CN1CCC(c2cc(-c3ccc(C(N)=O)cc3)n[nH]2)C1` (centres unmarked) [Example 4, 4-(5-(1-Cyanopyrrolidin-3-yl)-1H-pyrazol-3-yl)benzamide], for which the IC50 lay within 1000 to 10000 nM.

`C[C@@H]1CN(C#N)C[C@H]1c1nc(-c2ccccc2)n[nH]1` (relative stereo) [Example 113, Trans 3-methyl-4-(3-phenyl-1H-1,2,4-triazol-5-yl)pyrrolidine-1-carbonitrile]: the IC50 was in the range of 1000 to 10000 nM.

With `COc1ccc(C#N)cc1-c1cccc(-c2nc(C3CCCN3C#N)no2)c1` (centres unmarked) [Example 146, 2-(5-(5′-Cyano-2′-methoxy-[1,1′-biphenyl]-3-yl)-1,2,4-oxadiazol-3-yl)pyrrolidine-1-carbonitrile], the IC50 fell in the range of 100 to 1000 nM.

For `CNC(=O)c1ccc(-c2ccc3nc(C4CCN(C#N)C4)[nH]c3c2)cc1` (centres unmarked) [Example 75, 4-(2-(1-Cyanopyrrolidin-3-yl)-1H-benzo[d]imidazol-6-yl)-N-methylbenzamide], the IC50 was in the range of 100 to 1000 nM.

In the case of `N#CN1CCC(c2n[nH]c(-c3cccc(-c4ccccc4)c3)n2)C1` (centres unmarked) [Example 111, 3-(3-([1,1′-Biphenyl]-3-yl)-1H-1,2,4-triazol-5-yl)pyrrolidine-1-carbonitrile], the half-inhibitory concentration (IC50) is less than 100 nM.

For `N#Cc1cccc(-c2ccc3nc(C4CCN(C#N)C4)[nH]c3c2)c1` (centres unmarked) [Example 72, 3-(6-(3-Cyanophenyl)-1H-benzo[d]imidazol-2-yl)pyrrolidine-1-carbonitrile], the IC50 is 100 to 1000 nM.

In the case of `CNC(=O)c1cccc(-c2cnc3[nH]c(C4CCN(C#N)C4)nc3c2)c1` (single isomer, unassigned) [Example 92, 3-(2-(1-Cyanopyrrolidin-3-yl)-3H-imidazo[4,5-b]pyridin-6-yl)-N-methylbenzamide], the IC50 lay within 1000 to 10000 nM.

For `Cc1cncc(-c2cccc(-c3nc(C4CCCN4C#N)no3)c2)c1` (centres unmarked) [Example 164, 2-(5-(3-(5-Methylpyridin-3-yl)phenyl)-1,2,4-oxadiazol-3-yl)pyrrolidine-1-carbonitrile], the half-maximal inhibitory concentration (IC50) was 1000 to 10000 nM.

For `N#Cc1cnn(-c2cc(-c3nc([C@@H]4CCCN4C#N)no3)ccn2)c1` [Example 193, (S)-1-(4-(3-(1-Cyanopyrrolidin-2-yl)-1,2,4-oxadiazol-5-yl)pyridin-2-yl)-1H-pyrazole-4-carbonitrile], the IC50 fell in the range of 1000 to 10000 nM.

Regarding `N#CN1CCC(c2nnc(-c3ccc4nccn4c3)[nH]2)C1` (centres unmarked) [Example 108, 3-(5-(Imidazo[1,2-a]pyridin-6-yl)-4H-1,2,4-triazol-3-yl)pyrrolidine-1-carbonitrile], the IC50 was in the range of 1000 to 10000 nM.

Regarding `N#CN1CCC(c2nnc(-c3ccccn3)[nH]2)C1` (centres unmarked) [Example 105, 3-(5-(Pyridin-2-yl)-4H-1,2,4-triazol-3-yl)pyrrolidine-1-carbonitrile], the IC50 is 1000 to 10000 nM.

As to `N#Cc1ccc(-c2cnc3[nH]c(C4CCN(C#N)C4)nc3c2)cc1` (centres unmarked) [Example 84, 3-(6-(4-Cyanophenyl)-3H-imidazo[4,5-b]pyridin-2-yl)pyrrolidine-1-carbonitrile], the IC50 lay in the range of 100 to 1000 nM.

In the case of `N#Cc1cc(-c2cc(-c3nc([C@@H]4CCCN4C#N)no3)ccn2)ccn1` [Example 181, (S)-4-(3-(1-Cyanopyrrolidin-2-yl)-1,2,4-oxadiazol-5-yl)-[2,4′-bipyridine]-2 carbonitrile], the IC50 was less than 100 nM.

(Values after patent US11352339B2 (MISSION THERAPEUTICS LIMITED, priority 2016, dated 2022).)
